Activity calls are given as the source filed them.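 The calls were made as follows: active = EC50 under 50 µM in a live-cell viability test; inactive = the rest.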
Test system: HL60 proliferation, XTT absorbance
Experiment: antiproliferative activity against HL60 AML cells – cell-based, XTT absorbance, dose response (AID 1794805)

SMILES | EC50
NCc1ccc(-c2ccc3cc(C(=O)NCC4CCNCC4)oc3c2)cc1 | > 51 µM (inactive)
NC(=O)c1ccc(-c2ccc3cc(C(=O)NCC4CCNCC4)sc3c2)cc1 | > 51 µM (inactive)
O=C(NCC1CCNCC1)c1c[nH]c2cc(-c3ccc(N4CCCCC4)cc3)ccc12 | 50 µM
O=C(NCC1CCNCC1)c1cc2cc(-c3ccc(N4CCCCC4)cc3)ccc2[nH]1 | 50 µM
O=C(NCC1CCNCC1)c1cc2cc(-c3cn[nH]c3)ccc2[nH]1 | > 51 µM (inactive)
O=C(NCC1CCNCC1)c1cc2ccc(-c3ccc(N4CCCC4)cc3)cc2s1 | 26 µM
O=C(NCC1CCNCC1)c1c[nH]c2cc(-c3ccc(N4CCCC4)cc3)ccc12 | 50 µM

Next, values leading:

EC50 | SMILES
10 µM | O=C(NCC1CCNCC1)c1cc2ccc(-c3ccc(N4CCCCC4)cc3)cc2s1
9 µM | O=C(NCC1CCNCC1)c1cc2cc(-c3ccc(N4CCCCC4)cc3)ccc2s1
9.7 µM | O=C(NCC1CCNCC1)c1coc2cc(-c3ccc(N4CCCCC4)cc3)ccc12

Reference: PubChem BioAssay AID1794805 (Yongcheng Song lab at Baylor College of Medicine, 2022)
